These are literature values, as cited in patent publication US20240335498A1, “COMPOSITION AND METHODS OF TREATMENT USING TRANSDERMAL SUPPLEMENTATION” (Xygenyx Inc., priority 2023, published 2024).

Square brackets hold non-standard residues; d marks the D form. Peptide text beside a SMILES is read from it. Cit = NC(=O)NCCC[C@H](N)C(=O)O

The subject of data set [1] is wide dynamic range neurons in the ventroposterolateral nucleus of the thalamus.
For data set [2] the following is noted: penetration enhancer used alone.
For data set [3] the following is noted: topical formulations, within four weeks of treatment.
The conditions of data set [4]: compared to α-tocopherol = 1.0.
For data set [5] the following is noted: in vivo.
The conditions of data set [6]: dietary supplementation, doses up to 400 IU/day.
The test system of a further data set is F2-isoprostane. The settings on record: large doses of 1600-3200 IU/day.
For data set [7] the following is noted: even when dietary intake occurs in equal portions.
The conditions of data set [8]: topical application, concentrations 0.5-5%.

Turning to `CCCCCc1cc(O)c2c(c1)OC(C)(C)C1CCC(C)=CC21` (stereo not drawn) [THC, Δ-9-tetrahydrocannabinol], the “power in mediating pain relative to morphine” value in data set [1] is given as “ten times more powerful”.
Regarding `CC(C)[C@@H]1CC[C@@H](C)C[C@H]1O` [Menthol], the “increase of transdermal drug uptake (factor)” value in [2] is recorded as at least 10.
As to `CC[C@H](C)[C@H](NC(=O)[C@H](CC(=O)O)NC(=O)[C@@H](N)CCCCN)C(=O)N[C@@H](CCCNC(N)=O)C(N)=O` [tripeptide-10 citrulline, Tripeptide-10 citrulline] (H-KDI[Cit]-NH2), in data set [3], the improvement of suppleness is given as at most 54%.
Take `Cc1cc(O)c(C)c2c1O[C@](C)(CCC[C@H](C)CCC[C@H](C)CCCC(C)C)CC2` [β-tocopherol]: the relative biological activity in [4] was 0.5.
Regarding `CC12CCC(CC1)C(C)(C)O2` [eucalyptol, Eucalyptol], in [2], the “increase of transdermal drug uptake (factor)” value is “more than 10”.
With `Cc1cc(O)cc2c1O[C@](C)(CCC[C@H](C)CCC[C@H](C)CCCC(C)C)CC2` [δ-tocopherol], the relative biological activity in data set [4] was 0.03.
As for “HGH: hormone comprising a peptide chain that is synthesized in the pituitary gland”, the biological half-life in data set [5] is on record as 10-20 minutes.
In the case of `Cc1c(C)c2c(c(C)c1O)CC[C@@](C)(CCC[C@H](C)CCC[C@H](C)CCCC(C)C)O2` [α-tocopherol], the relative biological activity in data set [4] is listed as 1.0. In addition, the “reduction of the risk of coronary disease” value in data set [6] is “up to 34%”. Besides, in [6] (controlled trials), the “reduction of the risk of developing neurodegenerative diseases such as Alzheimer's Syndrome or dementia” value was at most 24%. In the data set on F2-isoprostane, the “blood plasma concentration of F2-isoprostane” value is “significantly lower”.
Take `C/C(=C\CO)CCC[C@H](C)CCC[C@H](C)CCCC(C)C` [phytol, Phytol]: the solubility in water entry is “nearly insoluble”.
With `Cc1c(O)cc2c(c1C)O[C@](C)(CCC[C@H](C)CCC[C@H](C)CCCC(C)C)CC2` [γ-tocopherol], the relative biological activity in [4] is listed as 0.1. Besides, the “concentration in vivo relative to α-tocopherol” value in [7] is “roughly 10%”.
Consider `C=CCCCCCCCCC(=O)N[C@@H](Cc1ccccc1)C(=O)O` [UP, Undecylenoyl phenylalanine], for which the “time to skin lightening effects” value in data set [8] was at least 7 days.
